Activity calls are given as the source filed them. How the calls were made is not given here.
Test system: CCRIS mutagenicity, Ames/micronucleus/aberration tests
Test: CCRIS mutagenicity studies
Text: The CCRIS database contains chemical records with carcinogenicity, mutagenicity, tumor promotion, and tumor inhibition test results. It was developed by the National Cancer Institute (NCI). Data are derived from studies cited in primary journals, current awareness tools, NCI reports, and other sources. Test results have been reviewed by experts in carcinogenesis and mutagenesis.
CCRIS provides historical information from the years 1985 - 2011. It is no longer updated.
This is an archive assay for CCRIS mutagenicity studies.

[1] = Test System: AMES SALMONELLA TYPHIMURIUM, Strain/Indicator: TA97, Metabolic Activation: HAMSTER, LIVER, S-9, AROCLOR 1254 (10 OR 30%), Method: PREINCUBATION
[2] = Test System: AMES SALMONELLA TYPHIMURIUM, Strain/Indicator: TA97, Metabolic Activation: NONE, Method: PREINCUBATION
[3] = Test System: AMES SALMONELLA TYPHIMURIUM, Strain/Indicator: TA97, Metabolic Activation: RAT, LIVER, S-9, AROCLOR 1254 (10 OR 30%), Method: PREINCUBATION
[4] = Test System: AMES SALMONELLA TYPHIMURIUM, Strain/Indicator: TA98, Metabolic Activation: NONE, Method: PREINCUBATION
[5] = Test System: AMES SALMONELLA TYPHIMURIUM, Strain/Indicator: TA100, Metabolic Activation: NONE, Method: PREINCUBATION
[6] = Test System: AMES SALMONELLA TYPHIMURIUM, Strain/Indicator: TA1535, Metabolic Activation: HAMSTER, LIVER, S-9, AROCLOR 1254 (10 OR 30%), Method: PREINCUBATION
[7] = Test System: AMES SALMONELLA TYPHIMURIUM, Strain/Indicator: TA1535, Metabolic Activation: NONE, Method: PREINCUBATION
[8] = Test System: AMES SALMONELLA TYPHIMURIUM, Strain/Indicator: TA1535, Metabolic Activation: RAT, LIVER, S-9, AROCLOR 1254 (10 OR 30%), Method: PREINCUBATION
[9] = Test System: AMES SALMONELLA TYPHIMURIUM, Strain/Indicator: TA98, Metabolic Activation: NONE, Method: STANDARD PLATE
[10] = Test System: AMES SALMONELLA TYPHIMURIUM, Strain/Indicator: TA98, Metabolic Activation: RAT, LIVER, S-9, AROCLOR 1254, Method: STANDARD PLATE
[11] = Test System: AMES SALMONELLA TYPHIMURIUM, Strain/Indicator: TA100, Metabolic Activation: NONE, Method: STANDARD PLATE
[12] = Test System: AMES SALMONELLA TYPHIMURIUM, Strain/Indicator: TA100, Metabolic Activation: RAT, LIVER, S-9, AROCLOR 1254, Method: STANDARD PLATE
[13] = Test System: AMES SALMONELLA TYPHIMURIUM, Strain/Indicator: TA97A, Metabolic Activation: NONE, Method: PREINCUBATION

CCCCCCCCCCCCC/C([O-])=N/[N+](C)(C)CC(C)O (configuration not stated) was tested, and the mutagenic call [1] was “inactive; negative”, the mutagenic call [2] was “inactive; negative” and the mutagenic call [3] was “inactive; negative”. The mutagenic call (Test System: AMES SALMONELLA TYPHIMURIUM, Strain/Indicator: TA98, Metabolic Activation: HAMSTER, LIVER, S-9, AROCLOR 1254 (10%), Method: PREINCUBATION) was “inactive; negative”, the mutagenic call (Test System: AMES SALMONELLA TYPHIMURIUM, Strain/Indicator: TA98, Metabolic Activation: HAMSTER, LIVER, S-9, AROCLOR 1254 (30%), Method: PREINCUBATION) was “inactive; negative” and the mutagenic call [4] was “inactive; negative”. The mutagenic call (Test System: AMES SALMONELLA TYPHIMURIUM, Strain/Indicator: TA98, Metabolic Activation: RAT, LIVER, S-9, AROCLOR 1254 (10%), Method: PREINCUBATION) was “inactive; negative”, the mutagenic call (Test System: AMES SALMONELLA TYPHIMURIUM, Strain/Indicator: TA98, Metabolic Activation: RAT, LIVER, S-9, AROCLOR 1254 (30%), Method: PREINCUBATION) was “inactive; negative” and the mutagenic call (Test System: AMES SALMONELLA TYPHIMURIUM, Strain/Indicator: TA100, Metabolic Activation: HAMSTER, LIVER, AROCLOR 1254 (10%), Method: PREINCUBATION) was “inactive; negative”. The mutagenic call (Test System: AMES SALMONELLA TYPHIMURIUM, Strain/Indicator: TA100, Metabolic Activation: HAMSTER, LIVER, S-9, AROCLOR 1254 (30%), Method: PREINCUBATION) was “inactive; negative”, the mutagenic call [5] was “inactive; negative” and the mutagenic call (Test System: AMES SALMONELLA TYPHIMURIUM, Strain/Indicator: TA100, Metabolic Activation: RAT, LIVER, S-9, AROCLOR 1254 (10%), Method: PREINCUBATION) was “inactive; negative”. The mutagenic call (Test System: AMES SALMONELLA TYPHIMURIUM, Strain/Indicator: TA100, Metabolic Activation: RAT, LIVER, S-9, AROCLOR 1254 (30%), Method: PREINCUBATION) was “inactive; negative”, the mutagenic call [6] was “inactive; negative” and the mutagenic call [7] was “inactive; negative”. For the same compound, the mutagenic call [8] was “inactive; negative”, the mutagenic call (Test System: AMES SALMONELLA TYPHIMURIUM, Strain/Indicator: TA1537, Metabolic Activation: HAMSTER, LIVER, S-9, AROCLOR 1254 (10 OR 30%), Method: PREINCUBATION) was “inactive; negative” and the mutagenic call (Test System: AMES SALMONELLA TYPHIMURIUM, Strain/Indicator: TA1537, Metabolic Activation: NONE, Method: PREINCUBATION) was “inactive; negative”. For the same compound, the mutagenic call (Test System: AMES SALMONELLA TYPHIMURIUM, Strain/Indicator: TA1537, Metabolic Activation: RAT, LIVER, S-9, AROCLOR 1254 (10 OR 30%), Method: PREINCUBATION) was “inactive; negative”.
With C[C@@H]1O[C@@H](O[C@H]2[C@H](O[C@H]3[C@H](O[C@H]4CC[C@@]5(C)[C@@H](CC[C@]6(C)[C@@H]5CC=C5[C@@H]7CC(C)(C)C[C@@H](O)[C@]7(C)CC[C@]56C)[C@@]4(C)CO)O[C@H](C(=O)O)[C@@H](O)[C@@H]3O)O[C@H](CO)[C@H](O)[C@@H]2O)[C@H](O)[C@H](O)[C@H]1O the mutagenic call (Test System: AMES SALMONELLA TYPHIMURIUM, Strain/Indicator: TA97, Metabolic Activation: NONE, Method: STANDARD PLATE) was “inactive; negative”, the mutagenic call (Test System: AMES SALMONELLA TYPHIMURIUM, Strain/Indicator: TA97, Metabolic Activation: RAT, LIVER, S-9, AROCLOR 1254, Method: STANDARD PLATE) was “inactive; negative” and the mutagenic call [9] was “inactive; negative”. The mutagenic call [10] was “inactive; negative”, the mutagenic call [11] was “inactive; negative” and the mutagenic call [12] was “inactive; negative”. For the same compound, the mutagenic call (Test System: AMES SALMONELLA TYPHIMURIUM, Strain/Indicator: TA102, Metabolic Activation: NONE, Method: STANDARD PLATE) was “inactive; negative” and the mutagenic call (Test System: AMES SALMONELLA TYPHIMURIUM, Strain/Indicator: TA102, Metabolic Activation: RAT, LIVER, S-9, AROCLOR 1254, Method: STANDARD PLATE) was “inactive; negative”.
COP(=S)(OC)Oc1ccc(N=O)c(C)c1 was tested, and the mutagenic call [9] was “active; positive”, the mutagenic call [10] was “active; positive” and the mutagenic call [11] was “active; positive”. For the same compound, the mutagenic call [12] was “active; positive”.
In the case of O=C(O)[C@@H]1CS[C@H](c2ccccc2O)N1C(=O)CCSSCCC(=O)N1[C@@H](c2ccccc2O)SC[C@H]1C(=O)O, the mutagenic call [9] is reported as “inactive; negative”, the mutagenic call [11] is reported as “inactive; negative” and the mutagenic call (Test System: AMES SALMONELLA TYPHIMURIUM, Strain/Indicator: TA1535, Metabolic Activation: NONE, Method: STANDARD PLATE) is reported as “inactive; negative”. For the same compound, the mutagenic call (Test System: AMES SALMONELLA TYPHIMURIUM, Strain/Indicator: TA1537, Metabolic Activation: NONE, Method: STANDARD PLATE) was “inactive; negative”, the mutagenic call (Test System: AMES SALMONELLA TYPHIMURIUM, Strain/Indicator: TA1538, Metabolic Activation: NONE, Method: STANDARD PLATE) was “inactive; negative” and the mutagenic call (Test System: E. COLI, Strain/Indicator: WP2, Metabolic Activation: NONE, Method: STANDARD PLATE) was “inactive; negative”. For the same compound, the mutagenic call (Test System: E. COLI, Strain/Indicator: WP2 UVRA, Metabolic Activation: NONE, Method: STANDARD PLATE) was “inactive; negative”.
In the case of CC(=O)c1ccncc1, the mutagenic call (End Point: IN VITRO CHROMOSOMAL ABERRATIONS, Test System: CHO-LB CELLS, Metabolic Activation: RAT, LIVER, S-9, AROCLOR 1254) is reported as “active; positive”, the mutagenic call [1] is reported as “inactive; negative” and the mutagenic call [2] is reported as “inactive; negative”. The mutagenic call [3] was “inactive; negative”, the mutagenic call (Test System: AMES SALMONELLA TYPHIMURIUM, Strain/Indicator: TA98, Metabolic Activation: HAMSTER, LIVER, S-9, AROCLOR 1254 (10 OR 30%), Method: PREINCUBATION) was “inactive; negative” and the mutagenic call [4] was “inactive; negative”. The mutagenic call (Test System: AMES SALMONELLA TYPHIMURIUM, Strain/Indicator: TA98, Metabolic Activation: RAT, LIVER, S-9, AROCLOR 1254 (10 OR 30%), Method: PREINCUBATION) was “inactive; negative”, the mutagenic call (Test System: AMES SALMONELLA TYPHIMURIUM, Strain/Indicator: TA100, Metabolic Activation: HAMSTER, LIVER, S-9, AROCLOR 1254 (10 OR 30%), Method: PREINCUBATION) was “inactive; negative” and the mutagenic call [5] was “inactive; negative”. For the same compound, the mutagenic call (Test System: AMES SALMONELLA TYPHIMURIUM, Strain/Indicator: TA100, Metabolic Activation: RAT, LIVER, S-9, AROCLOR 1254 (10 OR 30%), Method: PREINCUBATION) was “inactive; negative”, the mutagenic call [6] was “inactive; negative” and the mutagenic call [7] was “inactive; negative”. The mutagenic call [8] was “inactive; negative”.
For Cc1cc2ccccc2c2ccc3c(c12)C=CC(=O)C3=O, the mutagenic call [13] was “active; positive”, the mutagenic call [4] was “inactive; negative” and the mutagenic call [5] was “active; positive”. The mutagenic call (Test System: AMES SALMONELLA TYPHIMURIUM, Strain/Indicator: TA102, Metabolic Activation: NONE, Method: PREINCUBATION) was “inactive; negative” and the mutagenic call (Test System: AMES SALMONELLA TYPHIMURIUM, Strain/Indicator: TA104, Metabolic Activation: NONE, Method: PREINCUBATION) was “inactive; negative”.
In the case of OC1C=Cc2c(ccc3c2-c2cccc4cccc-3c24)C1O (configuration not stated), the mutagenic call [13] is reported as “inactive; negative”, the mutagenic call (Test System: AMES SALMONELLA TYPHIMURIUM, Strain/Indicator: TA97A, Metabolic Activation: RAT, LIVER, S-9, AROCLOR 1254, Method: PREINCUBATION) is reported as “active; positive” and the mutagenic call [4] is reported as “inactive; negative”. The mutagenic call (Test System: AMES SALMONELLA TYPHIMURIUM, Strain/Indicator: TA98, Metabolic Activation: RAT, LIVER, S-9, AROCLOR 1254, Method: PREINCUBATION) was “active; positive”, the mutagenic call [5] was “inactive; negative” and the mutagenic call (Test System: AMES SALMONELLA TYPHIMURIUM, Strain/Indicator: TA100, Metabolic Activation: RAT, LIVER, S-9, AROCLOR 1254, Method: PREINCUBATION) was “active; positive”.

Source: PubChem BioAssay AID1259407 (Chemical Carcinogenesis Research Information System (CCRIS), 2018)
